Laboratory results from paper doi:10.1101/2024.08.29.610163v8, “Structural Snapshots of B12-Dependent Methionine Synthase’s Catalytic Conformations” (biorxiv, 2026).
Positions count from the first letter of the chain named.

Tests used:
tMS^HcyFol = biological target: T1, tMS^HcyFol (Thermus thermophilus, UniProt Q5SKM5); test: UV-Vis methylcobalamin consumption; assay type: biochemical; details: 100 µM homocysteine; 23 µM CapCob-bound MeCbl or 20 µM free MeCbl; 2 µM enzyme; pH 7.4, 0.5 mM TCEP, 50 °C
T1 construct: gene TTHA0618; Hcy-Fol didomain; N-terminal His6-TEV tag, no cut described; E. coli BL21star(DE3)
T1 sequence (Q5SKM5 1-640 limits assumed): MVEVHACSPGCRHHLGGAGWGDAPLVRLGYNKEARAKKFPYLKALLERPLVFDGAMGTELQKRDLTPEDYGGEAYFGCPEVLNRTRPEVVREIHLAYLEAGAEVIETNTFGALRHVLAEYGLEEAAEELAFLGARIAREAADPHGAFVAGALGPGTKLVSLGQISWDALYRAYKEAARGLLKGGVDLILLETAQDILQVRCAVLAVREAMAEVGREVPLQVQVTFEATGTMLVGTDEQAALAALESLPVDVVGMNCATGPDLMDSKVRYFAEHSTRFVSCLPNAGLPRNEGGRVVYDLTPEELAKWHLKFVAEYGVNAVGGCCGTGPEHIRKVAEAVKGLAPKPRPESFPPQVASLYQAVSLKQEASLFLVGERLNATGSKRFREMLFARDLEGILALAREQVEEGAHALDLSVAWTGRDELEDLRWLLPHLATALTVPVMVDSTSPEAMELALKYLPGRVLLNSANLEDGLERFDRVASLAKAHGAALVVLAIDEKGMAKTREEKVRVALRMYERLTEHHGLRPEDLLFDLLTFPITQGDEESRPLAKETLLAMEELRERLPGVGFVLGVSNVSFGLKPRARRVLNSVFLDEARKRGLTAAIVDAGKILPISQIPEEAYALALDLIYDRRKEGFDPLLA

tMS^HcyFolCapCob [1] = biological target: T2, tMS^HcyFolCapCob (Thermus thermophilus, UniProt Q5SKM5, F110A/E123A/E124A/Y296A/D651A/P652A/G653A); test: X-ray crystal structure, […] Å; assay type: binding; details: pre-Hcy-on, prCbl holoenzyme, mutant 1
T2 construct: gene TTHA0618; Hcy-Fol-Cap-Cob tetradomain, lacks Act domain; N-terminal His6 tag cut with TEV; about 95 kDa monomer; E. coli BL21star(DE3)
T2 sequence (Q5SKM5 1-877 F110A/E123A/E124A/Y296A/D651A/P652A/G653A): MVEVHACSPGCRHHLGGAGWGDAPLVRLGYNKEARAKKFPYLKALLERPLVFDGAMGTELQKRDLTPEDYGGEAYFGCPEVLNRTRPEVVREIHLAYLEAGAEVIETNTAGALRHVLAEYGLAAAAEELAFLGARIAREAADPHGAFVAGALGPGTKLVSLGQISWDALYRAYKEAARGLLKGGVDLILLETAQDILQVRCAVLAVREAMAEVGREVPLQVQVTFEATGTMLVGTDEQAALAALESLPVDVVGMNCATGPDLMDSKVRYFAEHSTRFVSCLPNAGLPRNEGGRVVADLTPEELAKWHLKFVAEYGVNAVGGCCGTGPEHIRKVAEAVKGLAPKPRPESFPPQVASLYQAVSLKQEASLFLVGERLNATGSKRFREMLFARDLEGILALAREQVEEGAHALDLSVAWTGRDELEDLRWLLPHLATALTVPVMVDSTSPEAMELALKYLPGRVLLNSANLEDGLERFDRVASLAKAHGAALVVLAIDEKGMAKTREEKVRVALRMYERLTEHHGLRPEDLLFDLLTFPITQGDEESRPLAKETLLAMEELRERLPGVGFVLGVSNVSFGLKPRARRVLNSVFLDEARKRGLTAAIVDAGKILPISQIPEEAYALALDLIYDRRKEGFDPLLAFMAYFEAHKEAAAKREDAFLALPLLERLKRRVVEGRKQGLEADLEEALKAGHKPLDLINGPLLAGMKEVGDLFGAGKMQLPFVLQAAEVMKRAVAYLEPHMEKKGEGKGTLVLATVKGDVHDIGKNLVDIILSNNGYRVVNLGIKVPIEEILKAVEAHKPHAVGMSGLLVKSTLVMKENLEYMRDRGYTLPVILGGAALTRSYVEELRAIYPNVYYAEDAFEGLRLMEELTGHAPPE

tMS^ΔN35Hcy (tMS^Hcy) = biological target: T3, tMS^ΔN35Hcy (tMS^Hcy) (Thermus thermophilus, UniProt Q5SKM5); test: UV-Vis methylcobalamin consumption; assay type: biochemical; details: 100 µM homocysteine; 20 µM free MeCbl; 2 µM enzyme; pH 7.4, 0.5 mM TCEP, 50 °C
T3 construct: gene TTHA0618; isolated Hcy domain lacking N-terminal 35 residues; N-terminal His6-TEV tag, no cut described; E. coli BL21star(DE3)
T3 sequence (Q5SKM5 36-340 limits assumed): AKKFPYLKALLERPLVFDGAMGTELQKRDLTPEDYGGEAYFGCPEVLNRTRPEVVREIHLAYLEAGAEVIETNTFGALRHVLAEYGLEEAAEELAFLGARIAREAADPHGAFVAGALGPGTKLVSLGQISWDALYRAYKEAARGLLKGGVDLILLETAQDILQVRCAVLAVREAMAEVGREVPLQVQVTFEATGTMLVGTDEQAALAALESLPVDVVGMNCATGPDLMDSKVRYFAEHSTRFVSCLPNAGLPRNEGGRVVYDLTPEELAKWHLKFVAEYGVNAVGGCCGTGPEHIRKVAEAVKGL

tMS^HcyFolCapCob [2] = biological target: T4, tMS^HcyFolCapCob (Thermus thermophilus, UniProt Q5SKM5, F110A/E123A/E124A/R268A/D651A/P652A/G653A/D759A/N774H/R826A); test: X-ray crystal structure, […] Å; assay type: binding; details: Hcy-on; aeCbl holoenzyme; co-purified; Fol domain; mutant 2
T4 construct: gene TTHA0618; Hcy-Fol-Cap-Cob tetradomain, lacks Act domain; N-terminal His6 tag cut with TEV; about 95 kDa monomer; E. coli BL21star(DE3)
T4 sequence (Q5SKM5 1-877 F110A/E123A/E124A/R268A/D651A/P652A/G653A/D759A/N774H/R826A): T2 sequence (Q5SKM5 1-877 F110A/E123A/E124A/Y296A/D651A/P652A/G653A) with R268A, A296Y, D759A, N774H, R826A

| SMILES | UV-Vis methylcobalamin consumption (tMS^HcyFol) | X-ray crystal structure, 2.45 Å (tMS^HcyFolCapCob [1]; Hcy domain site) | UV-Vis methylcobalamin consumption (tMS^ΔN35Hcy (tMS^Hcy)) | X-ray crystal structure, 2.45 Å (tMS^HcyFolCapCob [1]; co-purified, Fol domain) | X-ray crystal structure, 2.38 Å (tMS^HcyFolCapCob [2]) |
| --- | --- | --- | --- | --- | --- |
| N[C@@H](CCS)C(=O)O [homocysteine] | consumption of methylcobalamin when bound to tMS^CapCob was observed with tMS^HcyFol | HCY was found bound in the pre-Hcy-on structure (9CBP) | Consumption of exogenous methylcobalamin was detected in the presence of both tMS ^HcyFol and tMS^Hcy | – | – |
| Nc1nc2c(c(=O)[nH]1)N[C@@H](CNc1ccc(C(=O)N[C@@H](CCC(=O)O)C(=O)O)cc1)CN2 [tetrahydrofolate] | – | – | – | tetradomain did yield a folate-bound structure, modelled as tetrahydrofolate (Ligand ID THG) | pre-Hcy-on (Cap-on, 9CBP) and Hcy-on (9CBR) states copurified with the folate demethylation byproduct |
